For 37 compounds, class results are on record in US20050197350A1, “Novel quinoline, tetrahydroquinazoline, and pyrimidine derivatives and methods of treatment related to the use thereof” (TAISHO PHARMACEUTICAL CO., LTD., priority 2003, published 2005).

This assay relates to MCH receptors. Kind of assay: MCH receptor activity class (method not given).
Setting [1] is: MCH receptor, class by percent of control at 10^-7 M or IC50.
Setting [2] is: activity class 1-3: percent of control at 10^-7 M or IC50.
[3] abbreviates: activity class per percent of control at 10^-7 M or IC50.
Where [4] appears, read: MCH receptor activity class 1-3 (percent of control at 10^-7 M or IC50).
The mark [5] stands for this setting: class by percent of control at 10^-7 M or IC50.
Where [6] appears, read: class by percent of control at 10^−7 M or IC50.

As to `CN(C)c1cc(N[C@H]2CC[C@@H](NC(=O)c3cc(F)cc(F)c3)CC2)nc2ccccc12` [compound 34, N-(cis-4-{[4-(dimethylamino)quinolin-2-yl]amino}cyclohexyl)-3,5-difluorobenzamide], the class under setting [1] is 2 (Class 2: The value of percent of control at 10^−7 M was from 40% to 60% or the value of IC′50 was from 50 nM to 200 nM.).

On to `CN(C)c1nc(N[C@H]2CC[C@@H](NC(=O)OCc3ccc([N+](=O)[O-])cc3)CC2)nc2c1CCCC2` [compound 1588], for which, under setting [2], the class was 3 (Class 3 The value of percent of control at 10^−7 M was more than 60% or the value of IC50 was more than 200 nM.).

As for `CN(C)c1nc(N[C@H]2CC[C@@H](NC(=O)C(CC(=O)c3ccc(Cl)cc3)SCc3ccc(Cl)cc3)CC2)nc2c1CCCC2` (relative stereo) [compound 1017], the class under setting [3] is listed as 3 (Class 3 The value of percent of control at 10^−7 M was more than 60% or the value of IC50 was more than 200 nM.).

As to `Cc1c(NC(=O)NC[C@H]2CC[C@@H](Nc3nccc(N(C)C)n3)CC2)cccc1[N+](=O)[O-]` [compound 2427, N-[(cis-4-{[4-(dimethylamino)pyrimidin-2-yl]amino}cyclohexyl)methyl]-N′-(2-methyl-3-nitrophenyl)urea], the class under setting [4] is given as 1 (Class 1: The value of percent of control at 10^−7 M was less than 40% or the value of IC50 was less than 50 nM.).

For `CN(C)c1ccnc(N[C@H]2CC[C@@H](NC(=S)Nc3ccc(N(C)C)c4ccccc34)CC2)n1` [compound 2267], under setting [5], the class is given as 2 (Class 2: The value of percent of control at 10^−7 M was from 40% to 60% or the value of IC′50 was from 50 nM to 200 nM.).

With `Cc1cc(=O)oc2c(OCC(=O)N[C@H]3CC[C@@H](Nc4cc(N(C)C)c5ccccc5n4)CC3)cccc12` [compound 145], the class under setting [1] is recorded as 3 (Class 3 The value of percent of control at 10^−7 M was more than 60% or the value of IC50 was more than 200 nM.).

Regarding `CSc1ncccc1C(=O)NC[C@H]1CC[C@@H](Nc2nc3c(c(N(C)C)n2)CCCC3)CC1` [compound 604], the class under setting [5] was 3 (Class 3 The value of percent of control at 10^−7 M was more than 60% or the value of IC50 was more than 200 nM.).

Regarding `CCCCOC(=O)c1ccc(NC(=O)N[C@H]2CC[C@@H](Nc3nc4c(c(N(C)C)n3)CCCC4)CC2)cc1` [compound 1877], the class under setting [5] is reported as 3 (Class 3 The value of percent of control at 10^−7 M was more than 60% or the value of IC50 was more than 200 nM.).

For `CN(C)c1ccnc(N[C@H]2CC[C@@H](NC(=O)c3cnc4ccccc4n3)CC2)n1` [compound 332], the class under setting [5] was 1 (Class 1: The value of percent of control at 10^−7 M was less than 40% or the value of IC50 was less than 50 nM.).

Consider `CN(C)c1cc(N[C@H]2CC[C@@H](CNC(=O)OCC(Cl)(Cl)Cl)CC2)nc2ccccc12` [compound 1578], for which the class under setting [2] is on record as 3 (Class 3 The value of percent of control at 10^−7 M was more than 60% or the value of IC50 was more than 200 nM.).

Take `Cc1cc(C(=O)NC[C@H]2CC[C@@H](Nc3nc4c(c(N(C)C)n3)CCCC4)CC2)c(C)o1` [compound 633]: the class under setting [5] is 3 (Class 3 The value of percent of control at 10^−7 M was more than 60% or the value of IC50 was more than 200 nM.).

`CN(C)c1nc(N[C@H]2CC[C@@H](NC(=S)NCCc3ccccc3)CC2)nc2c1CCCC2` [compound 1965]: under setting [1], the class is listed as 3 (Class 3 The value of percent of control at 10^−7 M was more than 60% or the value of IC50 was more than 200 nM.).

In the case of `CN(C)c1nc(N[C@H]2CC[C@@H](CNC(=O)OCc3ccccc3)CC2)nc2c1CCCC2` [compound 617], under setting [5], the class is on record as 3 (Class 3 The value of percent of control at 10^−7 M was more than 60% or the value of IC50 was more than 200 nM.).

`Cc1cc(CNC[C@H]2CC[C@@H](Nc3nccc(N(C)C)n3)CC2)cc(C)c1O` [compound 1261]: the class under setting [5] is recorded as 1 (Class 1: The value of percent of control at 10^−7 M was less than 40% or the value of IC50 was less than 50 nM.).

With `COc1cc(CN[C@H]2CC[C@@H](Nc3cc(N(C)C)c4ccccc4n3)CC2)cc(OC)c1O` [compound 1096], the class under setting [3] was 3 (Class 3 The value of percent of control at 10^−7 M was more than 60% or the value of IC50 was more than 200 nM.).

On to `Cc1cc(N(C)C)nc(N[C@H]2CC[C@@H](C(=O)NCc3ccccc3F)CC2)n1` [compound 2800], for which the class under setting [6] was 2 (Class 2: The value of percent of control at 10^−7 M was from 40% to 60% or the value of IC′50 was from 50 nM to 200 nM.).

Regarding `CN(C)c1nc(N[C@H]2CC[C@@H](CNC(=O)c3ccc([N+](=O)[O-])s3)CC2)nc2c1CCCC2` [compound 1075], the class under setting [3] is on record as 3 (Class 3 The value of percent of control at 10^−7 M was more than 60% or the value of IC50 was more than 200 nM.).

For the compound `CN(C)c1nc(N[C@H]2CC[C@@H](NC(=O)NC3CCN(C(=O)OCc4ccccc4)CC3)CC2)nc2c1CCCC2` [compound 1921], the class under setting [1] is listed as 3 (Class 3 The value of percent of control at 10^−7 M was more than 60% or the value of IC50 was more than 200 nM.).

As for `CN(C)c1nc(N[C@H]2CC[C@@H](NC(=O)/C=C/c3cccc([N+](=O)[O-])c3)CC2)nc2c1CCCC2` [compound 959], the class under setting [5] is recorded as 3 (Class 3 The value of percent of control at 10^−7 M was more than 60% or the value of IC50 was more than 200 nM.).

For `Cc1cnc(N[C@H]2CC[C@@H](CNC(=O)c3ccc(C#N)cc3)CC2)nc1N(C)C` [compound 2701], under setting [6], the class is listed as 2 (Class 2: The value of percent of control at 10^−7 M was from 40% to 60% or the value of IC′50 was from 50 nM to 200 nM.).

For `CN(C)c1ccnc(N[C@H]2CC[C@@H](NC(=O)NCc3ccc(F)cc3)CC2)n1` [compound 2245], the class under setting [5] is 3 (Class 3 The value of percent of control at 10^−7 M was more than 60% or the value of IC50 was more than 200 nM.).

`CCOC(=O)[C@H](CC(C)C)NC(=O)NC[C@H]1CC[C@@H](Nc2nccc(N(C)C)n2)CC1` (relative stereo) [compound 2409]: the class under setting [4] is on record as 3 (Class 3 The value of percent of control at 10^−7 M was more than 60% or the value of IC50 was more than 200 nM.).

As to `CCC(Oc1ccccc1)C(=O)NC[C@H]1CC[C@@H](Nc2cc(N(C)C)c3ccccc3n2)CC1` (relative stereo) [compound 175, N-[(cis-4-{[4-(dimethylamino)quinolin-2-yl]amino}cyclohexyl)methyl]-2-phenoxybutanamide], the class under setting [1] is recorded as 3 (Class 3 The value of percent of control at 10^−7 M was more than 60% or the value of IC50 was more than 200 nM.).

Consider `CN(C)c1nc(N[C@H]2CC[C@@H](CNC(=O)c3cc(C(C)(C)C)nn3Cc3ccccc3)CC2)nc2c1CCCC2` [compound 647], for which the class under setting [5] was 3 (Class 3 The value of percent of control at 10^−7 M was more than 60% or the value of IC50 was more than 200 nM.).

Turning to `CC(NC(=O)NC1CCC(Nc2nccc(N(C)C)n2)CC1)c1ccccc1` (stereo not shown) [compound 2227], the class under setting [5] was 3 (Class 3 The value of percent of control at 10^−7 M was more than 60% or the value of IC50 was more than 200 nM.).

For the compound `Cc1cnc(N[C@H]2CC[C@@H](NC(=O)C(O)c3ccc(Cl)cc3)CC2)nc1N(C)C` (relative stereo) [compound 2876, 2-(4-chlorophenyl)-N-(cis-4-{[4-(dimethylamino)-5-methylpyrimidin-2-yl]amino}cyclohexyl)-2-hydroxyacetamide], the class under setting [6] was 1 (Class 1: The value of percent of control at 10^−7 M was less than 40% or the value of IC50 was less than 50 nM.).

Consider `CN(C)c1nc(N[C@H]2CC[C@@H](CNC(=O)c3ccccc3SC(F)F)CC2)nc2c1CCCC2` [compound 644], for which the class under setting [5] is 3 (Class 3 The value of percent of control at 10^−7 M was more than 60% or the value of IC50 was more than 200 nM.).

As to `CCCSc1ncccc1C(=O)N[C@H]1CC[C@@H](Nc2cc(N(C)C)c3ccccc3n2)CC1` [compound 84], the class under setting [1] is listed as 3 (Class 3 The value of percent of control at 10^−7 M was more than 60% or the value of IC50 was more than 200 nM.).

With `Cc1cccc(NC(=O)N[C@H]2CC[C@@H](Nc3nc4c(c(N(C)C)n3)CCCC4)CC2)c1C` [compound 1696], the class under setting [2] is recorded as 3 (Class 3 The value of percent of control at 10^−7 M was more than 60% or the value of IC50 was more than 200 nM.).

Turning to `CN(C)c1cc(N[C@H]2CC[C@@H](NC(=O)c3cc(C(F)(F)F)ccc3F)CC2)nc2ccccc12` [compound 65], under setting [1], the class was 3 (Class 3 The value of percent of control at 10^−7 M was more than 60% or the value of IC50 was more than 200 nM.).

For the compound `CN(C)c1nc(N[C@H]2CC[C@@H](NC(=S)Nc3cccnc3)CC2)nc2c1CCCC2` [compound 2076], under setting [1], the class is given as 3 (Class 3 The value of percent of control at 10^−7 M was more than 60% or the value of IC50 was more than 200 nM.).

Consider `CCc1cccc(C(C)C)c1NC(=O)NC[C@H]1CC[C@@H](Nc2nc3c(c(N(C)C)n2)CCCC3)CC1` [compound 2468], for which, under setting [4], the class is given as 1 (Class 1: The value of percent of control at 10^−7 M was less than 40% or the value of IC50 was less than 50 nM.).

With `CN(C)c1nc(N[C@H]2CC[C@@H](NC(=S)Nc3cc(Cl)ccc3F)CC2)nc2c1CCCC2` [compound 2066], the class under setting [1] was 3 (Class 3 The value of percent of control at 10^−7 M was more than 60% or the value of IC50 was more than 200 nM.).

For the compound `CN(C)c1cc(N[C@H]2CC[C@@H](NC(=O)Nc3ccc(Br)cc3C(F)(F)F)CC2)nc2ccccc12` [compound 2152], the class under setting [5] is recorded as 3 (Class 3 The value of percent of control at 10^−7 M was more than 60% or the value of IC50 was more than 200 nM.).

For `CN(C)c1cc(N[C@H]2CC[C@@H](NC(=O)c3cc(Cl)cc(Cl)c3)CC2)nc2ccccc12` [compound 30], the class under setting [1] is 2 (Class 2: The value of percent of control at 10^−7 M was from 40% to 60% or the value of IC′50 was from 50 nM to 200 nM.).

Take `Cc1cnc(N[C@H]2CC[C@@H](NC(=O)c3ccccc3Br)CC2)nc1N(C)C` [compound 2914]: under setting [6], the class is listed as 3 (Class 3 The value of percent of control at 10^−7 M was more than 60% or the value of IC50 was more than 200 nM.).

With `COC(CN[C@H]1CC[C@@H](Nc2nc3c(c(N(C)C)n2)CCCC3)CC1)c1ccccc1` (stereo partly shown) [compound 1483], the class under setting [5] was 3 (Class 3 The value of percent of control at 10^−7 M was more than 60% or the value of IC50 was more than 200 nM.).
